According to patent US20150250782A1, “Methods and Compositions for Hypotensive Resuscitation” (Pharmazz, Inc., priority 2012, published 2015):

Assays:
[1] = system: endothelin A (ETA) receptors; test: Expression of ETA receptors in blood vessels after intravenous administration; format: in vivo, rat; details: intravenous administration in rats
[2] = system: hemorrhaged rats; test: Fixed-pressure hemorrhage model, centhaquin in hypertonic saline; format: in vivo, rat
Method: A sham group of rats was cannulated, but not hemorrhaged. A vehicle group received hypertonic saline. Treatment groups received centhaquin (free base) (0.006, 0.017, or 0.05 mg/kg) in hypertonic saline. The values are expressed as mean±S.E.M. with n=6 rats in each group.
FIGS. 9-12 show the effect of centhaquin on blood lactate and base deficit in hemorrhaged rats (FIG. 9); on mean arterial pressure and heart rate (FIG. 10); on cardiac output and stroke volume (FIG. 11); and on systemic vascular resistance and stroke work (FIG. 12). Like the tests of FIG. 8, a sham group of rats was cannulated but not hemorrhaged, a vehicle group received hypertonic saline, and treatment groups received free base centhaquin (0.006, 0.017, or 0.05 mg/kg) in hypertonic saline. The values are expressed as mean±S.E.M. with n=6 rats in each group. *p<0.05 compared to baseline, #p<0.05 compared to hemorrhage, Δp<0.05 compared to vehicle treated group.
FIG. 13 is a plot of fraction survival vs. time for groups of hemorrhaged rats. The sham group of rats was cannulated, but not hemorrhaged. The vehicle group received hypertonic saline, while treatment groups received centhaquin (free base) (0.006, 0.017, or 0.05 mg/kg) in hypertonic saline.
Centhaquin increased the survival time of hemorrhaged rats compared to hypertonic saline treatment. Median survival time for 50% survival rate of rats treated with hypertonic saline was 137±12 minutes, while for rats treated with centhaquin it was 375±25 minutes. Fraction survival at 250 min was 0 when resuscitated with hypertonic saline, while treatment with centhaquin improved the fraction survival to 0.8. Even at 480 min after resuscitation with centhaquin, the fraction survival was 0.2. […] The findings of the present study are novel, unexpected, and are important due to recent reports of large clinical studies showing hypertonic saline has no benefit over normal saline in patients with hypovolemic shock or severe traumatic brain injury (Bulger, May et al. 2010; Bulger, May et al. 2011).

[3] = system: right auricle of guinea pig; details: Srimal, Mason et al. 1990, cited from earlier work
[4] = system: hemorrhaged rats; test: Norepinephrine required to maintain MAP at 70 mmHg in hemorrhaged rats; format: in vivo, rat; details: 0.05 mg/kg
Method: (§1) In another study, the effect of centhaquin resuscitation on the amount of norepinephrine (NE) required to maintain mean arterial pressure (MAP) and the time by which MAP falls back to 35 mmHg in hemorrhaged rats was determined. Male, adult rats were anesthetized with urethane and a pressure catheter SPR-320 was placed in the femoral artery, and a pressure-volume catheter SPR-869 was placed in the left ventricle. Hemorrhage was induced by withdrawing blood and MAP was maintained at 35 mmHg for 30 minutes followed by resuscitation.
(§2) Two sets of experiments were performed. First, the amount of NE required to maintain MAP at 70 mmHg in normal saline (NS) or centhaquin (0.05 mg/kg) treated rats (volume equal to blood loss) was determined. Second, the time by which MAP fell back to 35 mmHg in rats treated with 3% hypertonic saline (HS) or centhaquin (0.05 mg/kg) (volume one-fifth of blood loss) was determined. […] In a second set of experiments, hemorrhaged rats were resuscitated with either HS or centhaquin (one-fifth the volume of blood loss).

[5] = system: dog femoral artery; details: 10 and 20 μg locally into femoral artery; Srimal, Mason et al. 1990; cited from earlier work
[6] = system: hemorrhaged rats; test: Fixed-pressure hemorrhage model, centhaquin dissolved in LR (100% SBV); format: in vivo, rat
Method: In the studies disclosed below, a rodent model of fixed-pressure hemorrhage without tissue trauma was used. This model limits factors that can influence the activity of a drug that is being investigated for the first time as a resuscitation agent. This hemorrhage model was made more severe by maintaining the hypotension for 30 minutes from the onset of hemorrhage to reach a base deficit of greater than −12 mEq/L (Gulati, Sen et al. 1997). In this irreversible situation, compensatory mechanisms fail (decompensatory phase), and a tremendous decrease in blood flow to all organs occurs, causing hypoperfusion leading to tissue hypoxia and end-organ failure (Gulati, Sen et al. 1997).
A rodent model of fixed-pressure hemorrhage without tissue trauma was used in a preliminary study. This hemorrhage model was made more severe by maintaining the hypotension for 30 min from the onset of hemorrhage to reach a base deficit of greater than −12 mEq/L (Gulati, Sen et al. 1997). […] Following groups were studied: Lactated Ringer's solution (LR-100) (100% shed blood volume (SBV)), or centhaquin (free base) (0.017, 0.05 and 0.15 mg/kg) dissolved in LR (100% SBV), or LR-300 (300% SBV).

[7] = system: hemorrhaged rats; test: Time by which MAP falls back to 35 mmHg in hemorrhaged rats, low volume resuscitation; format: in vivo, rat
Method: as §1, §2

[8] = system: release of norepinephrine; details: 0.1, 1.0 and 10.0 μg/ml; Bhatnagar, Pande et al. 1985; cited from earlier work
[9] = 0.05 mg/kg, 60 min following resuscitation
[10] = 0.05 mg/kg, one-fifth the volume of blood loss

SMILES: Cc1cccc(N2CCN(CCc3ccc4ccccc4n3)CC2)c1 [centhaquin, 2-[2-(4-(3-methyphenyl)-1-piperazinyl)ethyl]-quinoline]
- expression of endothelin A (ETA) receptors in the blood vessels [1]: increase the expression
- survival time compared to other groups ([2]; 0.017 mg/kg): maximal survival time
- Fraction survival ([2]; at 250 min): 0.8
- Fraction survival ([2]; at 480 min after resuscitation): 0.2
- Median survival time for 50% survival rate ([2]; centhaquin in hypertonic saline): 375 ± 25 min
- effect on positive inotropic effect of norepinephrine [3]: significantly potentiated
- spontaneous contraction of the right auricle ([3]; up to a concentration of 2 μg/ml): not affected
- Blood lactate ([4]; 60 min following resuscitation, volume equal to blood loss): 1.65 ± 0.23 mmol/L
- amount of NE needed in each rat to maintain MAP at 70 mmHg ([4]; first 60 min of resuscitation): 17.5 µg
- blood flow [5]: increased blood flow
- decrease in systemic vascular resistance ([6]; 0.017 mg/kg): 57%
- increase in MAP ([6]; 0.017 mg/kg): 55%
- increase in cardiac output ([6]; 0.017 mg/kg): 260%
- survival time ([6]; 0.017 mg/kg in LR (100% SBV)): 291 ± 57 min
- blood lactate levels ([6]; 0.017 mg/kg, 60 min following resuscitation): 3.55 ± 0.07 mmol/L
- decrease in systemic vascular resistance ([6]; 0.05 mg/kg): 41%
- increase in cardiac output ([6]; 0.05 mg/kg): 180%
- survival time ([6]; 0.05 mg/kg in LR (100% SBV)): 387 ± 39 min
- resuscitation compared to LR-300 ([6]; 0.05 mg/kg in LR-100 vs LR-300 (300% SBV)): more effective in resuscitation
- blood lactate levels [6, 9]: 4.08 ± 0.28 mmol/L
- increase in MAP [6, 9]: 59%
- blood lactate lower compared to hypertonic saline [7, 10]: 44%
- time by which MAP fell back to 35 mmHg [7, 10]: 148 ± 15 min
- survival after blood transfusion ([7]; blood transfusion one-fifth the volume of blood loss after MAP fell to 35 mmHg): 788 min
- norepinephrine release evoked by potassium chloride and dimethyl phenyl piperazinium chloride [8]: inhibited
- spontaneous release of norepinephrine [8]: initial increase, followed by a decrease
